# Reference: US20120202257A1, “LIGE-TYPE ENZYMES FOR BIOCONVERSION OF LIGNIN-DERIVED COMPOUNDS” (priority 2010, published 2012)
# B1: ligE: S. paucimobilis beta-etherase, positive control polypeptide (protein)
# chain: MARNNTITLYDLQLESGCTISPYVWRTKYALKHKGFDIDIVPGGFTGILERTGGRSERVPVIVDDGEWVLDSWVIAEYLDEKYPDRPMLFEGPTQKNLMKFLDNWLWSTAVGPWFRCYILDYHDLSLPQDRDYVRWSREQWFLGGQRLEDVQAGREDRLPLVPPTLEPFRRILAETKWLGGDQPNFADYSALAVFLWTASVARTPPLTEDDPLRDWLDRGFDLFDGLGRHPGMNPLFGLKLREGDPEPFVRQTGPAGAGGQALNKGPQTTKMPPRVAEKAD
# B2: ligE1: N. aromaticivorans putative beta-etherase polypeptide, glutathione S-transferase-like protein, expressed in E. coli (protein)
# chain: MAANNTITFYDLALSTGATISPFVWATKYALKHKGFDLDVVPGGFTGILERTGGKTERLPAIVDDGEFVLDSWGIVEYLDAKYPDRPVLIPHESVAATLKALDNWFWNAAVGPWMFCFCQDYRDLSLPQDHEYVTHSREKMLGRKLEEVQAGREERLPKISAALEPLRAALAQHQWLGGSSPNYADYRIMGGILFTASVCKTPVLANDDPLRDWIERCLDLYGGLGRHPGLFPLFGLEQREGDPDLFNRAAGQGGIYKRNTGPESTRAETQRITEGMKK
# B3: ABD26530.1: N. aromaticivorans putative beta-etherase polypeptide (protein)
# chain: MVIPLGEDNTIMLKLYSFGPAANSMKPLLTVFEKGLDVEKHRLDPAKFEHHTDWFKAINPRGQVPALVDGDKVVTESTVICEYLEDEYPTEVALRPADSFGKAQMRIWTKWVDEYFCWCVSTIGWHRYVGNMVKSLSDAEFEEKVKAIPVIEQQVKWRRAREGFPQDMLDEEMRKIAYSVRKLDDHLADHEWLVPGQYTLADICNFAIANGMQFGFAELVNKQDTPHLVRWIEQINERPAVKQMFAQVELEKLGPRE
# B4: LigF2: N. aromaticivorans putative beta-etherase polypeptide, glutathione S-transferase-like protein (protein)
# chain: MALKYYHAEPLANSLKSMVPLKEKGLAYESIYVDLHKFEQHQPWFTAINPEGQVPVLDHDGTIITHTTVINEYLEDAFPDAQPADAPLRPRDPVGAARMRYWNKFIDEHVMNYVSMHGWHRMVGVIARNIASGDFEKLLESIPLPDQRKKWATARSGFSEADLANATAKIEYALDKVEKQLGETKWLAGDTYTLADINFYSHCGAMVERMFPEMEVARRAPRLCEWRDRVAARPAVAEALKSEDRTAPGLRVWSGEVR
# B5: ABD27309.1: N. aromaticivorans putative beta-etherase polypeptide (protein)
# chain: MDEVSLYHWEPNANSGKPMLALMEKGVPFSSHYIDMLQFDQHKPEYLAINPQGTIPAMTHNGQVLTESTAIMEYVNDRFDGPDLMPADAQDRWRVRWWMKFMDQWLGPSFSMIGWSVFVGPMVRQRDPAELAAAIDRIPLPERRTAWRKAINGDFSESEMAESRRRVGLGIAKLEEELGKRPYVGSNQYSLADINIFNSTYSLPISQPDLAGKDRTPNIMRWLKRVYTREAVKKTWAMGKTDLAHRYGLIMAEIEG
# B6: LigF: S. paucimobilis beta-etherase, positive control polypeptide (protein)
# chain: MTLKLYSFGPGANSLKPLATLYEKGLEFEQVFVDPSKFEQHSDWFKKINPRGQVPALWHDGKVVTESTVICEYLEDVFPESGNSLRPADPFKRAEMRVWTKWVDEYFCWCVSTIGWAFGIKAIAQKMSDEEFEEHINKNVPIPEQQLKWRRARNGFPQEMLDEEFRKVGVSVARLEETLSKQDYLVDTGYSLADICNFAIANGLQRPGGFFGDYVNQEKTPGLCAWLDRINARPAIKEMFEKSKREDLLKRQNEKVA
# Test system: Escherichia coli
# Test: not given
# Settings: benzaldehyde derivatives, each demonstrated; cited from earlier work
row,Molecule,antibacterial activity against Escherichia coli
1,"O=Cc1ccc(O)c(O)c1O [2,3,4-trihydroxybenzaldehyde]",antibacterial activity
2,"O=Cc1cccc(O)c1O [2,3-dihydroxybenzaldehyde]",antibacterial activity
3,"O=Cc1c(O)cc(O)cc1O [2,4,6-trihydroxybenzaldehyde]",antibacterial activity
4,"O=Cc1ccc(O)cc1O [2,4-dihydroxybenzaldehyde]",antibacterial activity
5,"O=Cc1cc(O)ccc1O [2,5-dihydroxybenzaldehyde]",antibacterial activity
6,COc1cccc(C=O)c1O [2-hydroxy-3-methoxybenzaldehyde],antibacterial activity
7,COc1ccc(O)c(C=O)c1 [2-hydroxy-5-methoxybenzaldehyde],antibacterial activity
8,O=Cc1ccccc1O [2-hydroxybenzaldehyde],antibacterial activity
9,"COc1cc(O)cc(OC)c1C=O [4-hydroxy-2,6-dimethoxybenzaldehyde]",antibacterial activity

# Same assay, conditions: each known; cited from earlier work
row,Molecule,antimicrobial activity against Escherichia coli
1,O=Cc1ccc(O)cc1 [4-hydroxybenzaldehyde],antimicrobial activity
2,O=Cc1ccc(CO)o1 [5-hydroxymethylfurfural],antimicrobial activity
3,O=Cc1ccco1 [furfural],antimicrobial activity
4,COc1cc(C=O)cc(OC)c1O [syringaldehyde],antimicrobial activity
5,COc1cc(C=O)ccc1O [vanillin],antimicrobial activity

# Test system: Saccharomyces cerevisiae
# Test: not given
# Settings: cited from earlier work
row,Molecule,antifungal activities against the yeast Saccharomyces cerevisiae
1,COc1ccc(C=O)cc1OC [Veratraldehyde],significant antifungal activities
2,O=C(O)C=Cc1ccccc1 [cinnamic acid],significant antifungal activities
3,O=C(O)/C=C/c1cccc(O)c1 [m-coumaric acid],significant antifungal activities
4,O=C(O)/C=C/c1ccccc1O [o-coumaric acid],significant antifungal activities
5,O=C(O)/C=C/c1ccc(O)cc1 [p-coumaric acid],significant antifungal activities
6,COc1cc(C(=O)O)ccc1O [vanillic acid],significant antifungal activities
7,COc1cc(CCC(C)=O)ccc1O [vanillylacetone],significant antifungal activities

# Test system: not listed separately
# Test: in vitro biochemical assay for beta-etherase activity on fluorescent substrate MUAV (formation of 4MU), clarified E. coli cell extracts
# Settings: E. coli cell extracts expressing the protein; reactions containing 0.1 mM MUAV substrate
# Description: This. example describes a method for gene expression in E. coli, as well as beta-etherase biochemical assays. Expression of known and putative beta-etherase genes was performed using 5 ml cultures of the recombinant E. coli strains described herein in Luria Broth medium by induction of gene expression using isopropylthiogalactoside (IPTG) to a final concentration of 0.1 mM. Following induction, and cell harvest, the cells were disrupted using either sonication or the BPER (Invitrogen) cell lysis system.
# In vitro reactions were performed in a total volume of 200 ul and contained: 25 mM TrisHCl pH 7.5; 0.5 mM dithiothreitol; 1 mM glutathione; 0.05 mM or 0.1 mM MUAV; 10 ul of clarified cell extract used to initiate the reactions. Following incubation for 2.5 hours at room temperature, a 50 ul sample of the reactions was terminated using 150 uL of 300 mM glycine/NaOH buffer pH 9. The formation of 4 methylumbelliferone (4MU) upon hydrolysis of the aryl ether bond was monitored by the increase in fluorescence at λex=360 nm and λem=450 nm using a Spectramax UV/visible/fluorescent spectrophotometer.
# The total protein concentrations of the cell lysates were determined using the BCA reagent system for protein quantification (Pierce). […]
row,Molecule,total activity (beta-etherase) [rfu/ug]
1,B1,7
2,B2,529

# Same assay, conditions: MUAV substrate
row,Molecule,beta-etherase activity (in words)
1,B2,much elevated beta-etherase activity
2,B3,beta-etherase activity
3,B4,beta-etherase activity
4,B5,beta-etherase activity

# Same assay, conditions: MUAV substrate; LigF-type proteins
row,Molecule,total activity (beta-etherase) [rfu/ug]
1,B6,558
2,B4,1206

# Same assay, conditions: MUAV substrate; listed as ABD26841.1
row,Molecule,beta-etherase activity (in words)
1,B2,beta-etherase activity
